Test results published in ChEMBL document CHEMBL3396964, “SAH derived potent and selective EZH2 inhibitors” (Bioorg Med Chem Lett, 2015).
Active and inactive are the calls of the source. The calls are words filed in the database; no cut-off is given here.

Tests used:
[1] = target: Histone-lysine N-methyltransferase SETDB1 (Homo sapiens, UniProt Q15047); experiment: Inhibition of SETDB1 (unknown origin) by HMT assay
[2] = target: T1, Histone-lysine N-methyltransferase KMT5C (Homo sapiens, UniProt Q86Y97); experiment: Inhibition of SUV420H2 (unknown origin) by HMT assay
Target sequence in this assay (Q86Y97 whole entry): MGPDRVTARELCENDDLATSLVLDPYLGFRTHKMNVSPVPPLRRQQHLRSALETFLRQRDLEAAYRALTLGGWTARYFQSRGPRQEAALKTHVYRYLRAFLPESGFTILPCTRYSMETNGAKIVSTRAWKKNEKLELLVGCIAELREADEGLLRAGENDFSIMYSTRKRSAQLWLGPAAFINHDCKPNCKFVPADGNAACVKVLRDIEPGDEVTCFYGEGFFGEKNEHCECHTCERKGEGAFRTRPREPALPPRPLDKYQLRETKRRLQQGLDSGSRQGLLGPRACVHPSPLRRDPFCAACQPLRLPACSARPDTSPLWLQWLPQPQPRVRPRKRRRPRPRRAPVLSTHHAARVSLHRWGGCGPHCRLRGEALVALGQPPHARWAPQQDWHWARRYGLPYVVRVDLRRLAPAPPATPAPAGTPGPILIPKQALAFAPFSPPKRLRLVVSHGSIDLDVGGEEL

[3] = target: Histone-lysine N-methyltransferase SUV39H2 (Homo sapiens, UniProt Q9H5I1); experiment: Inhibition of SUV39H2 (unknown origin) by HMT assay
Histone-lysine N-methyltransferase SUV39H2, sequence (Q9H5I1 whole entry): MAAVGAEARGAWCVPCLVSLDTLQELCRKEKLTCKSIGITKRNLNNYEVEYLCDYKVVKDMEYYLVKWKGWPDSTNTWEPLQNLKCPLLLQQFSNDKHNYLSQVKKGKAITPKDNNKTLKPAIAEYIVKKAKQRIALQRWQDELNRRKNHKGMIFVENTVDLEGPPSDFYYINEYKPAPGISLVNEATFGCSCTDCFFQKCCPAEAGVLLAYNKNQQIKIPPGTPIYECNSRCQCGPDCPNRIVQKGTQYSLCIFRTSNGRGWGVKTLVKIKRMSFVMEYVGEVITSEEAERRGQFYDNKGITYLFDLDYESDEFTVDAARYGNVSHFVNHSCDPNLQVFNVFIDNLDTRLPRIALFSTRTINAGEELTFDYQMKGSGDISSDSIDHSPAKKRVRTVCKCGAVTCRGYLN

[4] = target: N-lysine methyltransferase SMYD2 (Homo sapiens, UniProt Q9NRG4); experiment: Inhibition of SMYD2 (unknown origin) by HMT assay
N-lysine methyltransferase SMYD2, sequence (Q9NRG4 whole entry): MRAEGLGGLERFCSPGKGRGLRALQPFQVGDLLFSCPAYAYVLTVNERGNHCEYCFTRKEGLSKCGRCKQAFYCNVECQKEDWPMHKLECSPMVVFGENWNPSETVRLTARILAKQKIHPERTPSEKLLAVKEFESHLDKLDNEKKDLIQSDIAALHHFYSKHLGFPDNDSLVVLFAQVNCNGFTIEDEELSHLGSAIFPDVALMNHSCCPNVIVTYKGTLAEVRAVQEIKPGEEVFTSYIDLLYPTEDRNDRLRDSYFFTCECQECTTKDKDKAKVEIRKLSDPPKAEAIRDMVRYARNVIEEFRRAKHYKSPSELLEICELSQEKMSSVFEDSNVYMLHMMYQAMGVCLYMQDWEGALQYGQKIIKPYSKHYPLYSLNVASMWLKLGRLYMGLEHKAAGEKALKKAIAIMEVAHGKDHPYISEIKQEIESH

[5] = target: T2, Histone-lysine N-methyltransferase EHMT1 (Homo sapiens) (UniProt Q9H9B1); experiment: Inhibition of EHMT1 (unknown origin) at 10 uM by HMT assay
T2 sequence (whole entry): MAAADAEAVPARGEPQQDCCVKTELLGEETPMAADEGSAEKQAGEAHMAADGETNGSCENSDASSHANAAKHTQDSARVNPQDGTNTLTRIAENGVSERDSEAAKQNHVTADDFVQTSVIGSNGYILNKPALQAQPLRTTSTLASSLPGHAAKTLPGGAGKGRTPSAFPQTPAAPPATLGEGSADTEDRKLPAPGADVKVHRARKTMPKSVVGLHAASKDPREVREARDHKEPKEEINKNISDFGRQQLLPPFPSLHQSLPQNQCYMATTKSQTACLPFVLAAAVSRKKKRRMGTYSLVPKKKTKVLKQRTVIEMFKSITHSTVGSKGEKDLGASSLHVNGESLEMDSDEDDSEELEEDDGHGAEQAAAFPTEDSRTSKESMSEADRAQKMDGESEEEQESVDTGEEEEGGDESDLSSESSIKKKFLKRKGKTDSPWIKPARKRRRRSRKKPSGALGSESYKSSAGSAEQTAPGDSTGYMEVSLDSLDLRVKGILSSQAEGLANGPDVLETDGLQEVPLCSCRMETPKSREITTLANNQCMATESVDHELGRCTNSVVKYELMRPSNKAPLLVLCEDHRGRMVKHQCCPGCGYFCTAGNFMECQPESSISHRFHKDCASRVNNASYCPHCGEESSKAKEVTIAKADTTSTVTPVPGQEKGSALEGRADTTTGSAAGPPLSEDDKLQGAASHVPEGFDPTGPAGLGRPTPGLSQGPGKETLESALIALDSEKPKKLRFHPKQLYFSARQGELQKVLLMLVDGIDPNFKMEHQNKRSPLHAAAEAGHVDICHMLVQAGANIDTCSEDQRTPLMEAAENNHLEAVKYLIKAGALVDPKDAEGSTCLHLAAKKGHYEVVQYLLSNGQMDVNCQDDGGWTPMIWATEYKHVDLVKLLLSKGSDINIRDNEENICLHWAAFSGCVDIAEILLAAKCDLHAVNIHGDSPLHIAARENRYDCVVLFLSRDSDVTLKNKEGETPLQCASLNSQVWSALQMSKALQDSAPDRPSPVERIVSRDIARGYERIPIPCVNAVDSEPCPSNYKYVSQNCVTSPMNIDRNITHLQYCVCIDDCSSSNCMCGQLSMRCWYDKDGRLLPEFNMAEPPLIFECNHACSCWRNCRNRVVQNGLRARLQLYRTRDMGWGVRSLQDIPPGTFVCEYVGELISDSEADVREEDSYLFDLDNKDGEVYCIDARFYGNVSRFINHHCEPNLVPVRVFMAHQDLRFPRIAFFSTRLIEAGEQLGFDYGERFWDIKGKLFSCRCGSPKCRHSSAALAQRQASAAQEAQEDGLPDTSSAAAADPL

[6] = target: Histone-lysine N-methyltransferase 2A (Homo sapiens, UniProt Q03164); experiment: Inhibition of MLL (unknown origin) by HMT assay
[7] = target: Histone-lysine N-methyltransferase EZH2 (Homo sapiens) (UniProt Q15910); experiment: Inhibition of EZH2 (unknown origin) at 100 uM by cell-based assay
Histone-lysine N-methyltransferase EZH2 (Homo sapiens), sequence (Q15910 whole entry, looked up): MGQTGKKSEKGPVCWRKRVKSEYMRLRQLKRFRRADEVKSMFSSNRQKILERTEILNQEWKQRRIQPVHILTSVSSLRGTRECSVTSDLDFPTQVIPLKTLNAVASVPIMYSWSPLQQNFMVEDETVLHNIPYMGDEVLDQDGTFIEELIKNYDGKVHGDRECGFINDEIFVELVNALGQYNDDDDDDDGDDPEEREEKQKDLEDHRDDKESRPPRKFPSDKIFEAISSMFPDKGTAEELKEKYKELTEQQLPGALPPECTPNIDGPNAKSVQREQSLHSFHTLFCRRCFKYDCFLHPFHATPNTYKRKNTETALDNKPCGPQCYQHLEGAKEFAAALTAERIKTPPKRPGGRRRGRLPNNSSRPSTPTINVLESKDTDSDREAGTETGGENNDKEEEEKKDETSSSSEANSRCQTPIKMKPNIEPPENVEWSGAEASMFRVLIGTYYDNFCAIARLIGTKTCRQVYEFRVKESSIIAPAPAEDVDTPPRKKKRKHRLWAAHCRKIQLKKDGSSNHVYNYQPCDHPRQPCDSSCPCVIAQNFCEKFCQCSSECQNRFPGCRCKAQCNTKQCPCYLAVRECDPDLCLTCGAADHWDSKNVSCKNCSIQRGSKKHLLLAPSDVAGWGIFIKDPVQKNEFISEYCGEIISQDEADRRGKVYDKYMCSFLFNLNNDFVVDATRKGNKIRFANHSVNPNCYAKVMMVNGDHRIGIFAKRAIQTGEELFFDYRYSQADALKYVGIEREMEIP

[8] = target: T3, Histone-lysine N-methyltransferase SETD7 (Homo sapiens, UniProt Q8WTS6); experiment: Inhibition of SETD7 (unknown origin) by HMT assay
T3 sequence (Q8WTS6 whole entry): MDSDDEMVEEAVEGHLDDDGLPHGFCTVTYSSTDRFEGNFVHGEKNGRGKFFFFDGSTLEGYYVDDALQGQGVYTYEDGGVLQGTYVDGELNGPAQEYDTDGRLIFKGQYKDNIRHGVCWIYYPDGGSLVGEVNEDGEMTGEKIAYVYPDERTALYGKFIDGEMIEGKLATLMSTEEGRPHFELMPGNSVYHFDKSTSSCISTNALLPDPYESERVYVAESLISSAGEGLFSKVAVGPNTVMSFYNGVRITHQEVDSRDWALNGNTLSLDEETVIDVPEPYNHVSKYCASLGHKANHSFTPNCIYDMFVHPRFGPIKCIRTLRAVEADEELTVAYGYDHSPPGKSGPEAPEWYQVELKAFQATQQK

[9] = target: T4, Histone-lysine N-methyltransferase SETD7 (Homo sapiens) (UniProt Q8WTS6); settings: 10 uM
T4 sequence (whole entry): T3 sequence (Q8WTS6 whole entry)
Description: Inhibition of SETD7 (unknown origin) at 10 uM by HMT assay

[10] = target: Histone-lysine N-methyltransferase EZH2 (Homo sapiens, UniProt O75530+Q09028+Q15022+Q15910, Y641N); experiment: Inhibition of N-terminally FLAG-tagged EZH2 Y641N mutant in EZH2/SUZ12/EED/RbAp48 complex (unknown origin) expressed in baculovirus infected in SF9 cells assessed as inhibition of methylation of nucleosomes at H3K27 by scintillation counting in presence of [3H]SAM
Histone-lysine N-methyltransferase EZH2, sequence (Q15910 whole entry Y641N, one chain of several): as the sequence (Q15910 whole entry, looked up) above, with Y641N counted along it

[11] = target: T1, Histone-lysine N-methyltransferase KMT5C; settings: 10 uM
Target sequence in this assay (Q86Y97 whole entry, looked up): as the sequence (Q86Y97 whole entry) above
Description: Inhibition of SUV420H2 (unknown origin) at 10 uM by HMT assay

In the case of `Nc1ncnc2c1ncn2[C@@H]1O[C@H](CSCC[C@H](N)C(=O)NCc2cc(-c3ccccc3)[nH]n2)[C@@H](O)[C@H]1O`, the IC50 [1] is reported as greater than 100 µM, the IC50 [2] is reported as greater than 100 µM and the IC50 [3] is reported as greater than 100 µM. The IC50 [4] was greater than 100 µM, the inhibition [5] was 24% and the IC50 [6] was 18.5 µM. For the same molecule, the inhibition [7] was “inactive”, the IC50 [8] was greater than 100 µM and the inhibition [9] was “inactive”. The IC50 [10] was 0.07 µM and the inhibition [11] was “inactive”.
